For one molecule, fraction unbound results are on record in publication PMC5983452 (PLoS ONE, 2018).

Structures can show the parent of a compound that is named as a salt.

The nature of this data set: in vitro. The following applies: human, plasma, pH 7.4, Human fu (unbound fraction).

Experimental: Caco-2 permeability. Caco-2 cells (obtained from the ATCC), between passage numbers 40 to 60, were seeded onto Millipore
Multiscreen plates at 1x10^5 cells/cm2 in Dulbecco's Modified Eagle Medium. Media was changed every two or three days. On
Day 20, the permeability study was performed using Hanks Balanced Salt Solution (HBSS) pH 7.4 buffer with 25 mM HEPES and
Incubations were carried out in an atmosphere of 5% CO2 with a relative humidity of
The monolayers were prepared by rinsing both basolateral and apical surfaces twice with HBSS at 37°C. Cells were
then incubated with HBSS in both apical and basolateral compartments for 40 min to stabilize physiological parameters. HBSS […]
removed and apical and basolateral samples diluted for analysis by LC-MS/MS. Permeability was assessed in duplicate, on two
different occasions. […] Compounds were quantified by LC-MS/MS analysis using a 5 point calibration curve. The starting concentration (C0) was determined from the dosing solution and
experimental recovery calculated from C0 and both apical and basolateral compartment concentrations. […]
(Papp) for each compound was calculated as: (dQ/dt)/(C0xA), where dQ/dt is the rate of permeation of the drug across the cells, C0 […]
Plasma protein binding. Plasma protein binding was assessed by equilibrium dialysis utilizing the HT-dialysis cell format with a […]

By fraction unbound is commonly meant free concentration divided by total concentration. Low values mean little free substance, high ones much free substance. Take `NC1CCC(S(=O)(=O)N2C3CCC2CC(NC(=O)c2cc(C4CC4)on2)C3)CC1` [EPZ028862, N-((1R,3R,5S)-8-((1r,4R)-4-aminocyclohexylsulfonyl)-8-aza-bicyclo[3.2.1]octan-3-yl)-5-cyclopropylisoxazole-3-carboxamide hydrochloride]: the fraction unbound at 16 h, 1 µM is 0.71.
